Key:
[1] = system: COL1A1, TGFβ1, α-smooth muscle actin protein in LX-2 cells; assay: Western Blot of main fibrosis markers in LX-2 cells induced by TGFβ1; assay type: cell-based, human; conditions: 20 μmol/L, TGF-β1 2 ng/ml, 24 hours
Experimental: (§1) TGFβ1 induced LX-2 cells and medicament C (using Climycin (HB) or Isovalerylspiramycin I (HY)) administration treatment: LX-2 cells were cultured in DMEM, High Glucose, GlutaMAX™ (Gibco10566016) medium containing 10% fetal bovine serum and mixture of 1% […] and 1% penicillin at 37 DEG C and 5% CO2. 1×10^5 cells per well were plated on a 6-well plate. After 24 hours of culture, the original medium in the 6-well plate was removed by a vacuum pump and added with DMEM medium without 10% fetal bovine serum. After starvation for 24 hours, TGF-β1 (2 ng/ml) was added to induce cell, and different concentration gradients of Carrimycin or Isovalerylspiramycin I were added at the same time, the concentrations were 10 μmol/L and 20 μmol/L respectively. A control group (without adding TGF-β1 induction), TGF-β1 induction group (only TGF-β1 induction) and TGF-β1 induction administration group (both TGF-β1 induction and medicament C treatment) were set.
After the cells were induced by TGFβ1 and continued to be cultured for 24 hours, 1 ml of Ripa lysis solution (containing 1% PMSF) was added to each well of the 6-well plate to extract the protein. And the protein concentration was determined by the BCA method. The sample was loaded at 25 μg/20 μl per well. […]

[2] = system: type I collagen α1 promoter COL1A1P; assay: COL1A1 promoter-luciferase reporter gene activity in LX2-COL cells; assay type: cell-based, human; conditions: 24 hours
Experimental: The constructed monoclonal cells LX2-COL stably expressing the type I collagen al promoter COL1A1P were spread on a 96-well plate with 2×10^4 cells per well. After the cell confluence is about 90%, different concentrations of medicament C (using Carrimycin or Isovalerylspiramycin I) were added, and each group of experiments has 4 replicate holes. Follow the instructions of Bright-Glo™ Luciferase Assay System, the medium in wells were removed after 24 hours, and 50 μl/well of any medium was added to each well. 50 μl of luciferase substrate was added to each well, and detection was performed after 2 min.

[3] = system: COL1A1, TGFB1, ACTA2 mRNA in LX-2 cells; assay: Real-time PCR of main fibrosis markers in LX-2 cells induced by TGFβ1; assay type: cell-based, human; conditions: TGF-β1 2 ng/ml, 24 hours
Experimental: as §1
After culturing for 24 hours, the medium was discarded, and the total RNA of LX-2 cells were extracted according to the TRIzol instructions. Following the instructions of Roche Transcriptor First Strand cDNA Synthesis Kit, the LX-2 total RNA were to reverse transcribed into cDNA. […]

[4] = system: COL1A1, TGFB1, ACTA2, MMP2 mRNA in skin fibroblasts CCC-ESF-1; assay type: cell-based; conditions: CCC-ESF-1, 20 and 40 μmol/L, TGF-β1 5 ng/ml, 24 hours
Experimental: Method for TGFβ1 inducing skin fibroblasts CCC-ESF-1 and administrating Carrimycin and Isovalerylspiramycin I comprises: CCC-ESF-1 was cultured in DMEM, High Glucose, GlutaMAX™ (Gibco 10566016) culture medium containing 10% fetal bovine serum, mixture of 1% penicillin and 1% streptomycin at 37 DEG C and 5% CO2, and was plated in a 6-well according to 3×10^5 cells per well. After culturing for 24 hours, the original culture medium in the 6-well plate was removed by a vacuum pump, and DMEM culture medium without 10% fetal bovine serum was added to be starvation culture for 24 hours. And then TGF-β1 (5 ng/ml) induction was added, and at the same time different concentration gradients of Carrimycin and Isovalerylspiramycin I were added. The concentrations were 20 μmol/L and 40 μmol/L. The following groups were set, control group (without adding TGF-β1 induction), TGF-β1 induction group (only TGF-β1 induction is added) and TGF-β1 induction administration group (both adding TGF-β1 induction and treating with Carrimycin or Isovalerylspiramycin I).
After culturing for 24 hours, the culture medium was discarded, and the Total RNA of […] were extracted according to the operation steps of the TRIzol instructions. According to the operation steps of the instructions of Roche Transcriptor First Strand cDNA Synthesis Kit, Total RNA of LX-2 was reversely transcribed into cDNA. […]

[5] = system: COL1A1, TGFB1, ACTA2, MMP2 mRNA in lung fibroblasts MRC-5; assay: Real-time PCR of main fibrosis markers in lung fibroblasts MRC-5 induced by TGFβ1; assay type: cell-based; conditions: TGF-β1 3 ng/ml, 24 hours
Experimental: Method for TGFβ1 inducing lung fibroblasts MRC-5 and administrating Carrimycin or Isovalerylspiramycin I comprises: MRC-5 was cultured in a MEM (Gibco 11095-080) culture medium containing 10% fetal bovine serum, a mixture of 1% penicillin and 1% streptomycin and 1% non-essential amino acids at 37 DEG C and 5% CO2, and was plated in a 6-well according to 3×10^5 cells per well. After culturing for 24 hours, the original culture medium in the 6-well plate was removed by a vacuum pump, and MEM culture medium without 10% fetal bovine serum was added to be starvation culture for 24 hours. And then TGF-β1 (3 ng/ml) induction was added, and at the same time different concentration gradients of Carrimycin and Isovalerylspiramycin I were added. The concentrations were 10 μmol/L, 20 μmol/L, 40 μmol/L. The following groups were set, control group (without adding TGF-β1 induction), TGF-β1 induction group (only TGF-β1 induction is added) and TGF-β1 induction administration group (both adding TGF-β1 induction and treating with Carrimycin or Isovalerylspiramycin I).
After culturing for 24 hours, the culture medium was discarded, and the Total RNA of MRC-5 cells were extracted according to the operation steps of the TRIzol instructions. According to the operation steps of the instructions of Roche Transcriptor First Strand cDNA Synthesis Kit, Total RNA of […] was reversely transcribed into cDNA. The cDNA, sterile water, Roche FastStart Universal Probe Master (Rox) and ABI TaqMan probes (GAPDH, COL1A1, TGFB1, ACTA2, MMP2) were prepared into a 20 μl reaction system, and the ABI 7500 Fast Real-time PCR System was used for detection. GAPDH was used as an internal control to analyze the results.

[6] = in vivo; cited from earlier work

Compound | expression of marker proteins COL1A1, TGFβ1, α-smooth muscle actin [1] | luciferase luminescence (COL1A1 promoter activity) ([2]; 40 μM) | inhibitory effect on the activity of the COL1A1 promoter ([2]; LX2-COL cells, luciferase) | inhibitory effect on COL1A1, TGFB1, and ACTA2 at the mRNA level ([3]; 20 μmol/L) | expression of COL1A1, TGFB1, and ACTA2 (mRNA) ([3]; with the increase of the doses (10 and 20 μmol/L)) | inhibition of COL1A1, TGFB1, ACTA2, and MMP2 (mRNA) [4] | effect of inhibiting COL1A1, TGFB1, and ACTA2 at the mRNA level ([5]; MRC-5, 40 μmol/L) | effect of inhibiting COL1A1 at the mRNA level ([5]; MRC-5, 40 μmol/L) | expression of COL1A1 (mRNA) ([5]; MRC-5, with the increase of the dose (10, 20, 40 μmol/L)) | T1/2β [6] [h]
CO[C@@H]1[C@@H](O[C@@H]2O[C@H](C)[C@@H](O[C@H]3C[C@@](C)(O)[C@@H](OC(=O)CC(C)C)[C@H](C)O3)[C@H](N(C)C)[C@H]2O)[C@@H](CC=O)C[C@@H](C)[C@@H](O[C@H]2CC[C@H](N(C)C)[C@@H](C)O2)/C=C/C=C/C[C@@H](C)OC(=O)C[C@H]1O [Isovalerylspiramycin I] | significantly inhibited | decreased most significantly | significant inhibitory effect | best inhibitory effect | decreased | significantly inhibit | the best | the best | decreases | –
Carrimycin | – | – | – | – | – | – | – | – | – | 23 to 27

From patent publication US20220211735A1, “MEDICAMENT AND COMBINATION PRODUCT USED FOR PREVENTING, ALLEVIATING AND/OR TREATING FIBROSIS, AND USE THEREOF” (priority 2019, published 2022)
